From patent publication US9630964B2, “Fluoro-9-methyl-β-carbolines” (priority 2013, dated 2017)

What was measured:
[1] = test system: outer hair cells (OHC) in the inner ear; assay: Immunohistochemical experiments: dying of outer hair cells after acoustic trauma; type: in vivo; conditions: guinea pig, intratympanic, total 0.105 mg per ear, day 14
Description: To induce an acoustic trauma, guinea pigs were anesthetized with 60 mg/kg ketamine and 8 mg/kg xylazine. Then Bepanten ointment (Bayer) was administered to the eyes and the animal was put in a soundproof chamber. A calibrated speaker was placed directly above the head of the animal, wherein it was set to emit a half octave band, centered around 8 kHz, with a volume of 110 dB for duration of 30 minutes.
The thermosensitive, liquid mixture was administered under view by a Hamilton syringe directly in front of the round window membrane of the middle ear (10 μL). The first dose 6-fluoro-9-methyl-β-carboline (e.g. 0.07 mg) was administered one hour after the acoustic trauma in a concentration of 0.007 mg/μL and the second dose 6-fluoro-9-methyl-β-carboline (0.035 mg in a volume of 5 μL) on day 3. Here, only one ear per animal was treated, while the second ear served as intra-individual control. The control here is particularly abbreviated to “contr.”. In comparative experiments it was found, that administration of just an active agent vehicle (hydrogel) has no effect in comparison to a fully untreated ear. For each active agent (including the controls) four guinea pigs were examined.
On day 14 after the acoustic trauma the region of the ear was dissected so that it contained the cochlea. […] In this way the sound induced damage can be localized and quantified. […]

[2] = test system: DRD2S (short variant of dopamine receptor subtype 2); assay: Quantitative RT-PCR, relative gene expression of DRD2S in SH-SY5Y cells; type: cell-based, human; conditions: 30 μM each
Description: (§1) SH-SY5Y cell lines, which were provided by the institute of human genetics of university hospital Eppendorf and which they in turn received from Braunschweig resource center, were used again for the RT-PCR experiments (reverse transcriptase polymerase chain reaction) carried out for this purpose.
(§2) The cells were incubated in MEM (Minimum essential medium, Life Technologies) with 10% FCS (fetal calf serum, Biochrom AG) and penicillin/streptomycin (Biochrom AG). The cells were seeded with a density of 1×10^5 cells/cm^2 in 25 cm^2 cell culture bottles (Falcon, cell culture treated) with 5 mL medium. Stock solutions of 10 mmol/L of compounds 9-methyl-β-carboline (AC-002 or 9MβC) and 6-fluoro-9-methyl-β-carboline (AC-102 or 6F9MβC), respectively were prepared in distillated water and sterile filtered. One day after the cell seeding the compounds were added in corresponding amounts (5-55 μL) to reach final concentration in the medium of 10 μM, 20 μM and 30 μM for 6F9MβC and 30 μM, 50 μM and 70 μM for 9MβC. The references received only the corresponding amount of solvent (distilled water). The medium was changed once a week.
(§3) The cells were regularly microscopically examined and harvest after 2, 7 and 14 days of incubation time, washed with PBS and immediately frozen at −80° C.
(§4) The RNA-isolation was done with the HighPure RNA Isolation kit of the company Roche. This isolation includes a DNaseI digestion. The concentration of RNA was measured with nanoDrop spectrometer and the RNA integrity was determined with the aid of the Bioanalyzer 2100 (Agilent). By using random hexamer primers, protector RNA inhibitor (Roche) and transcriptor reverse transcriptase (fermentas), 300 ng RNA were transcribed into cDNA per each sample.
(§5) After the reaction, this run was diluted 1:4 and thereof 2 μL per each quantitative RT-PCR were used. This was performed in a LightCycler 480 under standard conditions in the SybrGreen format with annealing temperatures determined for each primer individually. If possible, exon spanning primers were used.
(§6) The specificity was verified by melting curve analysis and subsequent gel electrophoresis. For each PCR the PCR efficiency and the Cq value was determined by the program LinRegPCR and these were used in further calculations. B2M (β2-microglobulin) was identified from multiple reference genes to be suitable for examination conditions. All results are results relative to the corresponding reference conditions, at which only solvent was administered for the specified period of time (i.e. 2 days, 7 days or 14 days). In FIGS. 5A to 5I are also relative gene expressions (relative to reference conditions) presented. Here, the 2-day exposition is presented in light grey, the 7-day exposition in dark grey and the 14-day exposition in black. Every measured value from FIGS. 5A-5I represents a mean value of 3 independent biologic samples.
(§7) Analogous to example 4 RT-PCR experiments with the inventive active agent 7-fluoro-9-methyl-β-carboline (7F9MβC) were also performed for some important cellular factors. The experimental procedure was here identical to the experiments with 6-fluoro-9-methyl-β-carboline and 9-methyl-β-carboline. Here the same (like for 6F9MβC) final concentrations of 30 μM, 50 μM and 70 μM 7F9MβC for the culture medium were employed. The examined factors were BDNF (brain-derived neurotrophic factor), Lif (Leukemia inhibitory factor), DRD2S (short variant of dopamine receptor subtype 2) as well as DKK1 (Dickkopf-related protein 1). The same primers, that were already listed for the respective target genes in example 4 (Tab. 1) were used. As already noted, especially BDNF and Lif belongs to the most important factors for cellurar repair processes after traumas in the inner ear.

[3] = test system: BTG2 (B-cell translocation gene 2); assay: Quantitative RT-PCR, relative gene expression of BTG2 in SH-SY5Y cells; type: cell-based, human; conditions: 10 μM 6F9MβC, except after 2-day exposition
Description: as §1
The cells were incubated in MEM (Minimum essential medium, Life Technologies) with 10% FCS (fetal calf serum, Biochrom AG) and penicillin/streptomycin (Biochrom AG). The cells were seeded with a density of 1×10^5 cells/cm^2 in 25 cm^2 cell culture bottles (Falcon, cell culture treated) with 5 mL medium. […]
The RNA-isolation was done with the HighPure RNA Isolation kit of the company Roche. […] The concentration of RNA was measured with nanoDrop spectrometer and the RNA integrity was determined with the aid of the Bioanalyzer 2100 (Agilent). […]
After the reaction, this run was diluted 1:4 and thereof 2 μL per each quantitative RT-PCR were used. This was performed in a LightCycler 480 under standard conditions in the SybrGreen format with annealing temperatures determined for each primer individually. […]
The specificity was verified by melting curve analysis and subsequent gel electrophoresis. For each PCR the PCR efficiency and the Cq value was determined by the program LinRegPCR and these were used in further calculations. […]

[4] = test system: Lif (Leukemia inhibitory factor); assay: Quantitative RT-PCR, relative gene expression of Lif in SH-SY5Y cells; type: cell-based, human; conditions: 30 μM each
Description: as §1, §2, §3, §4, §5, §6, §7

[5] = guinea pig, in vivo
Description: For better evaluation of half times of 9-methyl-β-carboline (9MβC), 6-fluoro-9-methyl-β-carboline (6F9MβC) and 7-fluoro-9-methyl-β-carboline (7F9MβC) in animal organism and more precisely in perilymph (the notified site of action), experiments with guinea pigs were conducted. Therefore, the respective active agent (in total 1.4 mg active agent per ear), packed in 40 μl of a hydrogel (18% Poloxamer 407 and 0.6% alginate), was administered at once in front of the membrane of the round window of narcotized guinea pigs. […] After expiry of the desired time (20 min, 2 h, 8 h or 24 h), each time 5 μL perilymph were removed under anesthesia from the top of the cochlea (apex). Subsequently, the animal was killed. Per each time (20 min, 2 h, 8 h or 24 h) measured values were taken of at least ears and averaged.
The concentration of the corresponding active agent in perilymph samples was determined by high-performance liquid chromatography (HPLC, partly also named as high-pressure liquid chromatography) and measurement of auto fluorescence of the respective active agent. For HPLC the eluent consisted to 45% of 90% acetonitrile and to 55% of ammonium acetate (40 mM, pH<5). The flow rate was 0.4 mL/min and injection volume was 10 μL. Each sample was diluted with 60% methanol, if the signal was too strong. After each run the injection needle was washed with 100% isopropanol. The detection limit was 20 fmol/L.
From the determined active agent concentrations the elimination half times were then calculated.

Cn1c2ccc(F)cc2c2ccncc21 [6F9MβC, 6-fluoro-9-methyl-β-carboline]
acoustic trauma-induced dying of outer hair cells [1]: could be prevented | DRD2S expression relative to expression induced by 9MβC ([2]; 2-day exposition): higher | DRD2S expression relative to expression induced by 9MβC ([2]; 7-day exposition): lower | DRD2S expression relative to expression induced by 9MβC ([2]; 14-day exposition): higher | BTG2 expression compared to the highest concentration of 9MβC [3]: comparable | Lif expression relative to expression induced by 9MβC ([4]; 2-day exposition): approximately three times as high | Lif expression relative to expression induced by 9MβC ([4]; 7-day exposition): slightly lower | Lif expression relative to expression induced by 9MβC ([4]; 14-day exposition): approximately twice as high | elimination half time [5]: approximately 6.0 h
